{
  "source": "patent US20260355199A1",
  "about": "“COMPOSITIONS AND METHODS FOR TREATING OR PREVENTING NONALCOHOLIC STEATOHEPATITIS (NASH), ANOREXIA, DEPRESSION, ENDOMETRIOSIS, AND OTHER DISEASES OR DISORDERS” (priority 2022, published 2026)",
  "key": {"TET2": {"system": "TET2", "assay": "TET2 protein in human MDMs", "format": "cell-based", "details": "24 h", "description": "(§1) Bobcat339 Treatment of Cultured Cells Bobcat339 powder (Sigma-Aldrich, SML2611) was freshly dissolved in DMSO at a concentration of 5 mM and filtered through a 0.22 micron. Cells grown at a density of 80-90% were incubated in growth media with vehicle (DMSO) or Bobcat339 at a final concentration of 10 μM for 24 h, followed by RNA and protein extraction.\n(§2) For cultured MDMs, cells were primed with CM-Endo or TGF-β1 (PeproTech, 100-21) for 36-48 h (to increase TET3 expression) before Bobcat339 treatment.\nCells were homogenized in situ using a pipette tip in 2×SDS-sample buffer with 10% β-mercaptoethanol at RT followed by heating at 100 °C for 5 min with occasional vortexing. The samples were loaded onto a 4-15% gradient SDS gel (Bio-rad, 456-8086) (10 μL/well) and transferred to nitrocellulose membranes, followed by Western blot analysis. The antibodies used were anti-TET3 (diluted at 1:1000, GeneTex, GTX121453 for human; diluted at 1:1000, Active Motif, 61395 for mouse), anti-TET2 (diluted at 1:1000, Proteintech, 21207-1-AP for human/mouse), anti-TGF-β1 (diluted at 1:1000, Abcam, ab215715 for human), anti-Lin28A (diluted at 1:1000, Cell Signaling, 3978S), and HRP-conjugated anti-GAPDH (dilution 1:5000; Proteintech, HRP-60004). The secondary antibody was HRP-linked Anti-rabbit IgG (dilution 1:10,000; Rockland, 611-1322)."}, "TET3 mRNA": {"system": "TET3 mRNA", "assay": "TET3 mRNA in THP-1 cells", "format": "cell-based, human", "details": "THP-1, 10 μM, 24 h", "description": "as §1\n(§3) Total RNAs were extracted from cells using PureLink RNA Mini Kit. 0.5-1 μg total RNA was reverse transcribed to cDNA in a reaction volume of 20 μL using PrimeScript RT Reagent Kit. Real-time quantitative PCR was performed in a 15 μL reaction volume containing 0.5-1 μL of cDNA using SsoAdvanced Universal SYBR Green Supermix in a Bio-Rad iCycler. Gene expression levels were normalized against RPLP0."}, "[1]": {"assay": "Tolerability of Bobcat339 in mice", "format": "in vivo, mouse", "details": "disease models in mice"}, "[2]": {"system": "Bobcat339-treated ABA mice", "assay": "Behavioral tests (OFT, TST, FST)", "format": "in vivo, mouse", "description": "It has been reported that AgRP neuron-specific TET3 knockdown reduces stress-like behaviors with decreased levels of circulating corticosterone. […] The open field test (OFT) has been used to assess general locomotor activity and anxiety; the tail suspension test (TST) and forced swim test (FST) have been used to evaluate behavioral despair and also to test the efficacy of new antidepressant compounds. All three tests (OFT, TST, and FST) have been used in previous studies to assess behavioral impacts of AgRP neurons in mice (Miletta, M. C. et al., 2020, Nature Metabolism, 2:1204-1211).\nFor all behavioral tests, mice were transferred to the testing room 1 h prior to testing for acclimation to the environment. All behavioral tests were performed in the afternoon (14:00-16:00). All behavioral apparatus was wiped with 70% ethanol prior to each trial and between trials. The open field (OF) apparatus consisted of a 56×56 cm open arena with 30 cm high walls. The mouse was placed into the center of the arena and allowed to move freely for 10 min with the activity being recorded and tracked by LimeLight 3 software (Actimetrics, Coulbourn Instruments). The software recorded and analyzed the distance and time traveled in the central (28×28 cm central area of the OF) and outer areas of the arena. The tail suspension test (TST) and the forced swim test (FST) lasted for 6 min and the total amount of immobility time during the final 4 min was measured for each animal."}, "TET3 and TET2 mRNA": {"system": "TET3 and TET2 mRNA", "assay": "TET3 and TET2 mRNA in human MDMs", "format": "cell-based", "set-up": "TET3 and TET2 mRNA levels: dose or concentration left out as unconfirmed", "details": "24 h", "description": "For siRNA transfection in a 24-well plate scale of MDMs, NT siRNA or TET3 siRNA (4392420/s47239, Ambion) was mixed with 25 μL of OPTI-MEM by gentle pipetting. In parallel, 1.5 μL of Lipofectamine RNAiMAX was mixed with 25 μL of OPTI-MEM by gentle pipetting. Following 5 min of incubation at RT, the resulting 50 μl of transfection solution was added to each well of cells containing 450 μL of growth media.\nBobcat339 Treatment of Cultured Cells Bobcat339 powder (Sigma-Aldrich, SML2611) was freshly dissolved in DMSO at a concentration of 5 mM and filtered through a 0.22 micron. […]\nas §2, §3"}, "Cas9+ mice": {"system": "Cas9+ mice", "assay": "Post-fast refeeding study with leptin", "format": "in vivo, mouse", "details": "leptin 5 mg/kg i.p.", "description": "To assess leptin effects on suppression of hunger-induced appetite, female Cas9+ mice injected with AAV or AAV-sgTet3 bilaterally into the ARC were fasted overnight for 22 h. On the second day, mouse leptin (L3772-1MG, Sigma Aldrich) was administrated at 5 mg/kg intraperitoneally at 10:00 and pre-weighed food was placed in the cage and monitored for the following 24 h. For ChIP studies, Cas9+ mice injected with AAV or AAVsgTet3 bilaterally into the ARC were fasted overnight for 22 h. On the second day, saline or leptin (5 mg/kg) was administrated intraperitoneally at 10:00. Two hours later, ARCs were isolated for ChIP-qPCR analysis. To examine leptin-induced protein-protein interactions, Cas9+ mice were fasted overnight for 22 h. On the second day, leptin was administrated at 5 mg/kg intraperitoneally at 10:00, and ARCs were isolated 2 h later, followed by co-IP studies."}},
  "note": "Entries after “also recorded” stand apart in the source; their conditions may differ.",
  "data": [
    {"compound": "Nc1nc(=O)n(-c2cccc(-c3ccccc3)c2)cc1Cl", "note": "[Bobcat339, 4-Amino-1-[1,1′-biphenyl]-3-yl-5-chloro-2(1H)-pyrimidinone]", "values": [
      {"measurement": "TET2 protein level", "setting": "TET2; 10 μM", "result": "not affected; also recorded: not TET2"},
      {"measurement": "TET2 protein level", "setting": "TET2; 10 mM (so in the source)", "result": "not significantly affected"},
      {"measurement": "TET3 mRNA", "setting": "TET3 mRNA", "result": "no significant difference in expression between the groups"},
      {"measurement": "side effects / toxicity", "setting": "[1]", "result": "without discernible toxicity; also recorded: without discernible side effects; also recorded: no discernible toxicity"},
      {"measurement": "FST immobility time", "setting": "[2]; forced swim test", "result": "spent less immobility time"},
      {"measurement": "OFT time spent in the center zone", "setting": "[2]; open field test", "result": "increased time spent in the center zone"},
      {"measurement": "OFT total distance travelled", "setting": "[2]; open field test", "result": "no differences in the total distance travelled"},
      {"measurement": "TST immobility time", "setting": "[2]; tail suspension test", "result": "spent less immobility time"},
      {"measurement": "TET3 and TET2 mRNA", "setting": "TET3 and TET2 mRNA; 10 μM", "result": "did not alter the mRNA levels of TET3 and TET2; also recorded: no significant differences in their expression"},
      {"measurement": "TET3 and TET2 mRNA levels", "setting": "TET3 and TET2 mRNA", "result": "did not alter the mRNA levels of TET3 and TET2"}
    ]},
    {"compound": "leptin: adipose hormone; mouse leptin L3772-1MG or human leptin L4146-1MG, Sigma Aldrich", "values": [
      {"measurement": "hunger-induced appetite", "setting": "Cas9+ mice; AAV control mice", "result": "suppressed hunger-induced appetite in control mice"},
      {"measurement": "hunger-induced appetite", "setting": "Cas9+ mice; TET3 knockdown (AAV-sgTet3) mice", "result": "failed to do so in TET3 knockdown animals"}
    ]}
  ]
}
